ChEMBL document CHEMBL1148709, “Derivatives of (-)-7-methyl-2-(5-(pyridinyl)pyridin-3-yl)-7-azabicyclo[2.2.1]heptane are potential ligands for positron emission tomography imaging of extrathalamic nicotinic acetylcholine receptors” (J Med Chem, 2007)
Active and inactive are the calls of the source. No cut-off for these calls is given here.

Columns and labels:
[1] = Ratio of drug level in frontal cortex to cerebellum in baboon after 180 mins; assay type: ADME, tissue-based; details: papio hamadryas, in vivo, 3 h
[2] = Ratio of drug level in thalamus to cerebellum in baboon after 180 mins; assay type: ADME, tissue-based; details: papio hamadryas, in vivo, 3 h
[3] = Ratio of drug level in pans to cerebellum in baboon after 180 mins; assay type: ADME, tissue-based; details: papio hamadryas, in vivo, 3 h
[4] = Ratio of drug level in thalamus to cerebellum in Wistar rat after 90 mins; assay type: ADME, tissue-based; details: in vivo, 1.5 h
physchem = details: octanol/water, pH 7.4
Description: Distribution coefficient, log D at pH 7.4 by shake-flask method

Mus musculus [5] = experiment: Toxicity assessed as induction of death in CD1 mouse at 2 umol/kg; assay type: organism-based; details: in vivo
Mus musculus [6] = experiment: Induction of straub tail in CD1 mouse at 2 umol/kg; assay type: functional, organism-based
Mus musculus [7] = experiment: Induction of fast breathing in CD1 mouse at 2 umol/kg; assay type: functional, organism-based

CN1[C@@H]2CC[C@@H]1[C@@H](c1cncc(-c3ccc([18F])nc3)c1)C2 gave a Ratio [1] of 2.4, a Ratio [2] of 6 and a Ratio [3] of 2.4.

Compound [11CH3]N1[C@@H]2CC[C@@H]1[C@@H](c1cnc(Cl)c(-c3ccnc(F)c3)c1)C2 has a Ratio [4] of 6.5.

For Fc1ccc(-c2cc([C@H]3C[C@H]4CC[C@H]3N4)cnc2Cl)cn1 (racemic), the logD (physchem) was 0.68.

CN1[C@@H]2CC[C@@H]1[C@@H](c1cnc(F)c(-c3ccc(F)nc3)c1)C2 (racemic) showed a logD (physchem) of 0.96.

With CN1[C@@H]2CC[C@@H]1[C@@H](c1cncc(-c3ccc(F)nc3)c1)C2 (racemic) the logD (physchem) was 0.45.

Compound CN1[C@@H]2CC[C@@H]1[C@@H](c1cnc(F)c(-c3ccc(C#N)nc3)c1)C2 (racemic) has a logD (physchem) of 0.64.

Compound CN1[C@@H]2CC[C@@H]1[C@@H](c1cnc(Cl)c(-c3ccnc(F)c3)c1)C2 (racemic) has a logD (physchem) of 1.26.

Work on [11CH3]N1[C@@H]2CC[C@@H]1[C@@H](c1cnc(Cl)c(-c3ccnc(F)c3)c1)C2 (racemic) yielded a Ratio [4] of 2.2.

CN1[C@@H]2CC[C@@H]1[C@@H](c1cnc(Cl)c(-c3ccc(F)nc3)c1)C2 (single isomer, unassigned) showed a logD (physchem) of 1.42.

With CN1[C@@H]2CC[C@@H]1[C@@H](c1cncc(-c3ccc(F)nc3)c1)C2 (stereo in doubt; (-)-24d) [listing 1 of 2 here] the Activity (Mus musculus [5]) was “Non-toxic”.

For CN1[C@@H]2CC[C@@H]1[C@@H](c1cncc(-c3ccc(F)nc3)c1)C2 (stereo in doubt; (-)-24d) [listing 2 of 2 here], the Activity (Mus musculus [6]) was “Active” and the Activity (Mus musculus [7]) was “Active”.
